In paper PMC5146859, “Phase 1/2 study of pacritinib, a next generation JAK2/FLT3 inhibitor, in myelofibrosis or other myeloid malignancies” (Journal of Hematology & Oncology, 2016):

Tested on: patients with MF
Test: Phase 2 safety: adverse events, serious adverse events and deaths
Format: in vivo, human
Experimental: At screening/baseline, patients underwent a medical history, physical examination, vital sign assessment, ECOG PS assessment, electrocardiogram, and assessment of hematologic parameters and blood chemistry. Hematology/blood chemistry, physical examinations, and vital sign assessments were performed throughout treatment. Toxicity was assessed using the National Cancer Institute Common Terminology Criteria for Adverse Events (NCIC-CTCAE), version 3.0, with relationship to treatment assigned by the investigator and were recorded from the first dose of pacritinib until 30 days after the last dose. Bone marrow biopsy and/or aspirate samples were drawn at baseline, on day 1 of cycle 4 and cycle 10, as clinically indicated, and at the termination visit. Disease response and progression were determined using the relevant International Working Group (IWG) criteria.
The efficacy-evaluable population included those patients with a baseline and corresponding follow-up value. The safety population included all enrolled patients who received ≥1 dose of pacritinib.

C1=C/COCc2cc(ccc2OCCN2CCCC2)Nc2nccc(n2)-c2cccc(c2)COC/1 [pacritinib, 11-(2-pyrrolidin-1-yl-ethoxy)-14,19-dioxa-5,7,26-triaza-tetracyclo[19.3.1.1(2,6). 1(8,12)]heptacosa-1(25),2(26),3,5,8,10,12(27),16,21,23-decaene]
Relation of deaths to pacritinib (phase 2): None of the deaths were considered related to pacritinib | SAEs considered related to pacritinib (phase 2): two | Gastrointestinal toxicities (phase 2, n = 31): reported by all patients | Grade 3/4 AE: anemia (phase 2, n = 31): 5 n | Grade 3/4 AE: bone pain (phase 2, n = 31): 4 n | Grade 3/4 AE: diarrhea (phase 2, n = 31): 5 n | Grade 3/4 AE: fatigue (phase 2, n = 31): 5 n | Grade 3 or 4 thrombocytopenia (phase 2, n = 31): three | Grade 3 treatment-related AEs (phase 2, n = 31): 22.6% | Grade 4 treatment-related AEs (phase 2, n = 31): No grade 4/5 treatment-related AEs were reported | Leukopenia, neutropenia, lymphopenia (phase 2, n = 31): No leukopenia, neutropenia, or lymphopenia was reported | Patients who discontinued pacritinib because of an AE (phase 2, n = 31): 9.7% | Patients with SAEs (phase 2, n = 31): 41.9% | Patients with at least one grade 3/4 AE (phase 2, n = 31): 71.0% | Patients with dose interruptions because of AEs (phase 2, n = 31): Fourteen | Patients with dose reductions because of AEs (phase 2, n = 31): 14 patients | Treatment-related AE: diarrhea (phase 2, n = 31): 90.3% | Treatment-related AE: fatigue (phase 2, n = 31): 12.9% | Treatment-related AE: nausea (phase 2, n = 31): 48.4% | Treatment-related AE: vomiting (phase 2, n = 31): 29.0% | Treatment-emergent AE: Abdominal pain (phase 2, n = 31, Any grade): 9 (29.0) n (%) | Treatment-emergent AE: Anemia (phase 2, n = 31, Any grade): 6 (19.4) n (%) | Treatment-emergent AE: Asthenia (phase 2, n = 31, Any grade): 5 (16.1) n (%) | Treatment-emergent AE: Bone pain (phase 2, n = 31, Any grade): 6 (19.4) n (%) | Treatment-emergent AE: Cardiac murmur (phase 2, n = 31, Any grade): 4 (12.9) n (%) | Treatment-emergent AE: Constipation (phase 2, n = 31, Any grade): 5 (16.1) n (%) | Treatment-emergent AE: Diarrhea (phase 2, n = 31, Any grade): 28 (90.3) n (%) | Treatment-emergent AE: Dyspnea (phase 2, n = 31, Any grade): 5 (16.1) n (%) | Treatment-emergent AE: Edema peripheral (phase 2, n = 31, Any grade): 12 (38.7) n (%) | Treatment-emergent AE: Fatigue (phase 2, n = 31, Any grade): 18 (58.1) n (%) | Treatment-emergent AE: Hyperuricemia (phase 2, n = 31, Any grade): 4 (12.9) n (%) | Treatment-emergent AE: Insomnia (phase 2, n = 31, Any grade): 9 (29.0) n (%) | Treatment-emergent AE: Nausea (phase 2, n = 31, Any grade): 16 (51.6) n (%) | Treatment-emergent AE: Night sweats (phase 2, n = 31, Any grade): 7 (22.6) n (%) | Treatment-emergent AE: Pain in extremity (phase 2, n = 31, Any grade): 8 (25.8) n (%) | Treatment-emergent AE: Pruritus (phase 2, n = 31, Any grade): 9 (29.0) n (%) | Treatment-emergent AE: Pyrexia (phase 2, n = 31, Any grade): 4 (12.9) n (%) | Treatment-emergent AE: Rash (phase 2, n = 31, Any grade): 4 (12.9) n (%) | Treatment-emergent AE: Upper respiratory tract infection (phase 2, n = 31, Any grade): 4 (12.9) n (%) | Treatment-emergent AE: Vomiting (phase 2, n = 31, Any grade): 11 (35.5) n (%) | Treatment-emergent AE: Weight decreased (phase 2, n = 31, Any grade): 4 (12.9) n (%) | Treatment-emergent AE: Abdominal pain (phase 2, n = 31, Grade 1): 3 (9.7) n (%) | Treatment-emergent AE: Anemia (phase 2, n = 31, Grade 1): 0 n (%) | Treatment-emergent AE: Asthenia (phase 2, n = 31, Grade 1): 4 (12.9) n (%) | Treatment-emergent AE: Bone pain (phase 2, n = 31, Grade 1): 1 (3.2) n (%) | Treatment-emergent AE: Cardiac murmur (phase 2, n = 31, Grade 1): 0 n (%) | Treatment-emergent AE: Constipation (phase 2, n = 31, Grade 1): 5 (16.1) n (%) | Treatment-emergent AE: Diarrhea (phase 2, n = 31, Grade 1): 14 (45.2) n (%) | Treatment-emergent AE: Dyspnea (phase 2, n = 31, Grade 1): 4 (12.9) n (%) | Treatment-emergent AE: Edema peripheral (phase 2, n = 31, Grade 1): 6 (19.4) n (%) | Treatment-emergent AE: Fatigue (phase 2, n = 31, Grade 1): 2 (6.5) n (%) | Treatment-emergent AE: Hyperuricemia (phase 2, n = 31, Grade 1): 2 (6.5) n (%) | Treatment-emergent AE: Insomnia (phase 2, n = 31, Grade 1): 7 (22.6) n (%) | Treatment-emergent AE: Nausea (phase 2, n = 31, Grade 1): 9 (29.0) n (%) | Treatment-emergent AE: Night sweats (phase 2, n = 31, Grade 1): 4 (12.9) n (%) | Treatment-emergent AE: Pain in extremity (phase 2, n = 31, Grade 1): 5 (16.1) n (%) | Treatment-emergent AE: Pruritus (phase 2, n = 31, Grade 1): 4 (12.9) n (%) | Treatment-emergent AE: Pyrexia (phase 2, n = 31, Grade 1): 4 (12.9) n (%) | Treatment-emergent AE: Rash (phase 2, n = 31, Grade 1): 2 (6.5) n (%) | Treatment-emergent AE: Upper respiratory tract infection (phase 2, n = 31, Grade 1): 3 (9.7) n (%) | Treatment-emergent AE: Vomiting (phase 2, n = 31, Grade 1): 7 (22.6) n (%) | Treatment-emergent AE: Weight decreased (phase 2, n = 31, Grade 1): 4 (12.9) n (%) | Treatment-emergent AE: Abdominal pain (phase 2, n = 31, Grade 2): 3 (9.7) n (%) | Treatment-emergent AE: Anemia (phase 2, n = 31, Grade 2): 1 (3.2) n (%) | Treatment-emergent AE: Asthenia (phase 2, n = 31, Grade 2): 1 (3.2) n (%) | Treatment-emergent AE: Bone pain (phase 2, n = 31, Grade 2): 1 (3.2) n (%) | Treatment-emergent AE: Cardiac murmur (phase 2, n = 31, Grade 2): 4 (12.9) n (%) | Treatment-emergent AE: Constipation (phase 2, n = 31, Grade 2): 0 n (%) | Treatment-emergent AE: Diarrhea (phase 2, n = 31, Grade 2): 9 (29.0) n (%) | Treatment-emergent AE: Dyspnea (phase 2, n = 31, Grade 2): 0 n (%) | Treatment-emergent AE: Edema peripheral (phase 2, n = 31, Grade 2): 5 (16.1) n (%) | Treatment-emergent AE: Fatigue (phase 2, n = 31, Grade 2): 11 (35.5) n (%) | Treatment-emergent AE: Hyperuricemia (phase 2, n = 31, Grade 2): 0 n (%) | Treatment-emergent AE: Insomnia (phase 2, n = 31, Grade 2): 2 (6.5) n (%) | Treatment-emergent AE: Nausea (phase 2, n = 31, Grade 2): 6 (19.4) n (%) | Treatment-emergent AE: Night sweats (phase 2, n = 31, Grade 2): 3 (9.7) n (%) | Treatment-emergent AE: Pain in extremity (phase 2, n = 31, Grade 2): 2 (6.5) n (%) | Treatment-emergent AE: Pruritus (phase 2, n = 31, Grade 2): 4 (12.9) n (%) | Treatment-emergent AE: Pyrexia (phase 2, n = 31, Grade 2): 0 n (%) | Treatment-emergent AE: Rash (phase 2, n = 31, Grade 2): 1 (3.2) n (%) | Treatment-emergent AE: Upper respiratory tract infection (phase 2, n = 31, Grade 2): 1 (3.2) n (%) | Treatment-emergent AE: Vomiting (phase 2, n = 31, Grade 2): 3 (9.7) n (%) | Treatment-emergent AE: Weight decreased (phase 2, n = 31, Grade 2): 0 n (%) | Treatment-emergent AE: Abdominal pain (phase 2, n = 31, Grade 3): 3 (9.7) n (%) | Treatment-emergent AE: Anemia (phase 2, n = 31, Grade 3): 3 (9.7) n (%) | Treatment-emergent AE: Asthenia (phase 2, n = 31, Grade 3): 0 n (%) | Treatment-emergent AE: Bone pain (phase 2, n = 31, Grade 3): 4 (12.9) n (%) | Treatment-emergent AE: Cardiac murmur (phase 2, n = 31, Grade 3): 0 n (%) | Treatment-emergent AE: Constipation (phase 2, n = 31, Grade 3): 0 n (%) | Treatment-emergent AE: Diarrhea (phase 2, n = 31, Grade 3): 5 (16.1) n (%) | Treatment-emergent AE: Dyspnea (phase 2, n = 31, Grade 3): 1 (3.2) n (%) | Treatment-emergent AE: Edema peripheral (phase 2, n = 31, Grade 3): 1 (3.2) n (%) | Treatment-emergent AE: Fatigue (phase 2, n = 31, Grade 3): 4 (12.9) n (%) | Treatment-emergent AE: Hyperuricemia (phase 2, n = 31, Grade 3): 0 n (%) | Treatment-emergent AE: Insomnia (phase 2, n = 31, Grade 3): 0 n (%) | Treatment-emergent AE: Nausea (phase 2, n = 31, Grade 3): 1 (3.2) n (%) | Treatment-emergent AE: Night sweats (phase 2, n = 31, Grade 3): 0 n (%) | Treatment-emergent AE: Pain in extremity (phase 2, n = 31, Grade 3): 0 n (%) | Treatment-emergent AE: Pruritus (phase 2, n = 31, Grade 3): 1 (3.2) n (%) | Treatment-emergent AE: Pyrexia (phase 2, n = 31, Grade 3): 0 n (%) | Treatment-emergent AE: Rash (phase 2, n = 31, Grade 3): 1 (3.2) n (%) | Treatment-emergent AE: Upper respiratory tract infection (phase 2, n = 31, Grade 3): 0 n (%) | Treatment-emergent AE: Vomiting (phase 2, n = 31, Grade 3): 1 (3.2) n (%) | Treatment-emergent AE: Weight decreased (phase 2, n = 31, Grade 3): 0 n (%) | Treatment-emergent AE: Abdominal pain (phase 2, n = 31, Grade 4): 0 n (%) | Treatment-emergent AE: Anemia (phase 2, n = 31, Grade 4): 2 (6.5) n (%) | Treatment-emergent AE: Asthenia (phase 2, n = 31, Grade 4): 0 n (%) | Treatment-emergent AE: Bone pain (phase 2, n = 31, Grade 4): 0 n (%) | Treatment-emergent AE: Cardiac murmur (phase 2, n = 31, Grade 4): 0 n (%) | Treatment-emergent AE: Constipation (phase 2, n = 31, Grade 4): 0 n (%) | Treatment-emergent AE: Diarrhea (phase 2, n = 31, Grade 4): 0 n (%) | Treatment-emergent AE: Dyspnea (phase 2, n = 31, Grade 4): 0 n (%) | Treatment-emergent AE: Edema peripheral (phase 2, n = 31, Grade 4): 0 n (%) | Treatment-emergent AE: Fatigue (phase 2, n = 31, Grade 4): 1 (3.2) n (%) | Treatment-emergent AE: Hyperuricemia (phase 2, n = 31, Grade 4): 2 (6.5) n (%) | Treatment-emergent AE: Insomnia (phase 2, n = 31, Grade 4): 0 n (%) | Treatment-emergent AE: Nausea (phase 2, n = 31, Grade 4): 0 n (%) | Treatment-emergent AE: Night sweats (phase 2, n = 31, Grade 4): 0 n (%) | Treatment-emergent AE: Pain in extremity (phase 2, n = 31, Grade 4): 1 (3.2) n (%) | Treatment-emergent AE: Pruritus (phase 2, n = 31, Grade 4): 0 n (%) | Treatment-emergent AE: Pyrexia (phase 2, n = 31, Grade 4): 0 n (%) | Treatment-emergent AE: Rash (phase 2, n = 31, Grade 4): 0 n (%) | Treatment-emergent AE: Upper respiratory tract infection (phase 2, n = 31, Grade 4): 0 n (%) | Treatment-emergent AE: Vomiting (phase 2, n = 31, Grade 4): 0 n (%) | Treatment-emergent AE: Weight decreased (phase 2, n = 31, Grade 4): 0 n (%) | Patients who died (phase 2, of 33 enrolled): 27.3%
